Results reported in patent publication US12606561B2, “Substituted pyrazolo[1,5-a][1,3,5]triazines as CDK inhibitors” (QURIENT CO., LTD., priority 2018, dated 2026).

What was measured:
A2780 = A2780 viability assay (CellTiter-Glo, 72 hours); assay type: cell-based; settings: Homo sapiens; A2780 cells
Procedure: (§1) Human […] cell line, MV4-11_(ATCC, Cat #CRL-9591), NSCLC (Non-small cell lung cancer) cell line H460 (ATCC, Cat #HTB-177), A2780 (ECACC, Cat #93112519) and OVCAR-3(ATCC, Cat #HTB-161) were obtained from ATCC. Cells were grown in RPMI-1640 media (Invitrogen, Cat #22400-089) supplemented with 10% FBS (Invitrogen, Cat #10099141) and 1% penicillin/streptomycin (Invitrogen, Cat #15070063) and cultured at 37° C., 5% CO2 in a humidified chamber. All cell lines were routinely tested for mycoplasma.
(§2) To effect of the CDK7 inhibitor to inhibit the growth of target cancer cells, viability assay were conducted a 72 hour time period. Briefly, the candidate cell line was plated in 96 well plate at the following density of cells respectively. 1×10^4 cells/well for MV4-11, 5×10^3 for H460 and OVCAR-3, and 1×10^3 for A2780. After 24 hours, the cells were treated with various concentrations of the compound (ranging from 0.0015 uM to 10 uM). DMSO solvent without compound served as a control and final DMSO concentration lest than 0.1%. After 72 hours of incubation at 37° C., 5% CO2 incubator, cells were analyzed for the viability using the CellTiter-Glo Luminescent Cell Viability Assay (Promega, Cat #G7570). All viability assays were performed in duplicate and Luminescence was read using an Envision (Perkin Elmer, USA). Data was analyzed using XLfit software.

CDK7/Cyclin H/MNAT1 = target: T1, CDK7/Cyclin H/MNAT1 (Homo sapiens, UniProt P50613); assay: Enzymatic assay for CDK7 (LANCE Ultra kinase assay, FRET based); assay type: biochemical; settings: for IC50: ATP at Km
T1 construct: purchased Invitrogen PR6749B
T1 sequence (P50613 whole entry): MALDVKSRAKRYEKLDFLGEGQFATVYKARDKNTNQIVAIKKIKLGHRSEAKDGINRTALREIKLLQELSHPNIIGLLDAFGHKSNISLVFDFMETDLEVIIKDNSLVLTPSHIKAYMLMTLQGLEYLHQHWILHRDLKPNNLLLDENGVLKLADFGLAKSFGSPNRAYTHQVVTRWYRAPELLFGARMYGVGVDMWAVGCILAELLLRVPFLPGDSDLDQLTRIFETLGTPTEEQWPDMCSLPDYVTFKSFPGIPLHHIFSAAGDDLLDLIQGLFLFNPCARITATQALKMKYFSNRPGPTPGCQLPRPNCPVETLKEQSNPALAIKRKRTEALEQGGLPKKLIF
T1 sequence (P51946 whole entry partner): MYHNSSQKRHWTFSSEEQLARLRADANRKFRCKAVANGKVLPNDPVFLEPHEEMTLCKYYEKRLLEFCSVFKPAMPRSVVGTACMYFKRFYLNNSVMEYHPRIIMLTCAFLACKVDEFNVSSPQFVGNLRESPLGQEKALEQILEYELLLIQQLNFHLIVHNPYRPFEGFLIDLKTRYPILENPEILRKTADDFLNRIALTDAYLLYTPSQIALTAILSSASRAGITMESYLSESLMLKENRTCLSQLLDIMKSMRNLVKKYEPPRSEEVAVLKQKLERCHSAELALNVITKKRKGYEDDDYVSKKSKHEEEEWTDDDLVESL
T1 sequence (P51948 whole entry partner): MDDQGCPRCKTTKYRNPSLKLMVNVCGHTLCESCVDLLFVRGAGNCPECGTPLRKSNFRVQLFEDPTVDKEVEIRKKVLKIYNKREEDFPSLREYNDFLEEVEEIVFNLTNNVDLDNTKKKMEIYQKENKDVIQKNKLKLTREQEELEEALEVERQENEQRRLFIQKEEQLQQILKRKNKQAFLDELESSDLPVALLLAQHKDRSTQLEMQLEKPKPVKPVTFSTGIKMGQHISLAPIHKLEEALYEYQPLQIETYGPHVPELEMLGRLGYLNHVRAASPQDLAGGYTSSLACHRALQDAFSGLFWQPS
How it was run: (§3)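 FRET read-out: Eu-labeled anti-phospho-antibody binding a phosphorylated ULight peptide. Purified CDK–cyclin complex, ATP at Km.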

CDK2/Cyclin A = target: T2, CDK2/Cyclin A (Homo sapiens, UniProt P24941); assay: Enzymatic assay for CDK2 (LANCE Ultra kinase assay, FRET based); assay type: biochemical; settings: ATP at Km
T2 construct: purchased Invitrogen PV6290
How it was run: (§4)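 TR-FRET kinase assay at ATP Km with ULight-MBP peptide (68 nM) and Eu-anti-phospho-MBP antibody; CDK2/Cyclin A at […], CDK5/p25 at […]. 8-dose 4-fold compound dilutions; 60 min kinase reaction at 23° C., EDTA stop, 60 min detection, read at 615/665 nm.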

OVCAR-3 = OVCAR-3 viability assay (CellTiter-Glo, 72 hours); assay type: cell-based; settings: Homo sapiens; OVCAR-3 cells
Procedure: as §1, §2

CDK1/Cyclin B = target: T3, CDK1/Cyclin B (Homo sapiens, UniProt P06493); assay: Enzymatic assay for CDK1 (LANCE Ultra kinase assay, FRET based); assay type: biochemical; settings: ATP at Km; read-out: CDK1 enzymatic activity IC50
T3 construct: purchased Invitrogen PR4768C
T3 sequence (P06493 whole entry): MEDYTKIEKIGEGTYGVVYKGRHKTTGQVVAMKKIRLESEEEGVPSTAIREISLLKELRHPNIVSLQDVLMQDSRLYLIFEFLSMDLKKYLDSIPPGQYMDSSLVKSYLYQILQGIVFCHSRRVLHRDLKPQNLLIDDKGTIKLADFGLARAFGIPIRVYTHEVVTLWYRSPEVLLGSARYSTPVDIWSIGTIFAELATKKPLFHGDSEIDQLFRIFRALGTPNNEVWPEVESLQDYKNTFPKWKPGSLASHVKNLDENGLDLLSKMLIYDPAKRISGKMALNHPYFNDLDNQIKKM
T3 sequence (P14635 whole entry partner): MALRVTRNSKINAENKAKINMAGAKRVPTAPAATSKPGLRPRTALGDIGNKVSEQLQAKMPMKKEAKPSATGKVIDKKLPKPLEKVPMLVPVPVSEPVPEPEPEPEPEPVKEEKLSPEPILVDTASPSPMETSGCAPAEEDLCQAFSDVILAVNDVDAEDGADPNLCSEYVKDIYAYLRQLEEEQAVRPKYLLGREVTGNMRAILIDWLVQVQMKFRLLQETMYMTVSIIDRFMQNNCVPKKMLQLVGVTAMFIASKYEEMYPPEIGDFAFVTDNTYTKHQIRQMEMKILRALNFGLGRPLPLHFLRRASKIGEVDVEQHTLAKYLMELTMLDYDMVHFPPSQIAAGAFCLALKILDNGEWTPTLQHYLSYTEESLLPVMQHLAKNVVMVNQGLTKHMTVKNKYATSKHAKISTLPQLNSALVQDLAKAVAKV
How it was run: as §3

CDK5/p25 = target: T4, CDK5/p25 (Homo sapiens, UniProt Q00535); assay: Enzymatic assay for CDK5 (LANCE Ultra kinase assay, FRET based); assay type: biochemical; settings: ATP at Km
T4 construct: purchased Invitrogen PR8543B
T4 sequence (Q00535 whole entry): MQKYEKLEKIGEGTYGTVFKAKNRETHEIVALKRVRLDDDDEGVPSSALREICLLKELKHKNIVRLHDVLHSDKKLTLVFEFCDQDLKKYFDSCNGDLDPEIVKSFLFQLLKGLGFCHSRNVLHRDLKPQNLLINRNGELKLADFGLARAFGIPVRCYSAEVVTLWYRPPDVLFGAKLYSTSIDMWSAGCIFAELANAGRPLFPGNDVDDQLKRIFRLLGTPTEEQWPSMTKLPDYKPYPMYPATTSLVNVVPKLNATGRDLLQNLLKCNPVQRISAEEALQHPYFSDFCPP
T4 sequence (Q15078 99-307 partner limits assumed): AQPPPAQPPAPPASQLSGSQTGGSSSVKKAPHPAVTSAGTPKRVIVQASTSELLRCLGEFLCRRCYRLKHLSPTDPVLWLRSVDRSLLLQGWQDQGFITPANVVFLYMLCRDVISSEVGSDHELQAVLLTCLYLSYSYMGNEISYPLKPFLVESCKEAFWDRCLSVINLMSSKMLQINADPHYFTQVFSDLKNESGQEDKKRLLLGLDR
How it was run: as §4

SMILES	IC50 (A2780)	IC50 (CDK7/Cyclin H/MNAT1)	CDK1/CDK7: Selectivity of CDK7 inhibition over CDK1 inhibition (CDK7/Cyclin H/MNAT1)	CDK2/CDK7: Selectivity of CDK7 inhibition over CDK2 inhibition (CDK7/Cyclin H/MNAT1)	CDK5/CDK7: Selectivity of CDK7 inhibition over CDK5 inhibition (CDK7/Cyclin H/MNAT1)	IC50 (CDK2/Cyclin A)	IC50 (OVCAR-3)	IC50 (CDK1/Cyclin B)	IC50 (CDK5/p25)
CC(C)c1cnn2c(NCc3ccccc3-c3nccc4cc(NC(=O)/C=C/CN(C)C)ccc34)nc(N3CCc4sccc4C3)nc12 [Compound 101]	< 1 µM	0.1 to 1 µM	B (B indicates 50 < [fold] ≤ 500)	B (B indicates 50 < [fold] ≤ 500)	B (B indicates 50 < [fold] ≤ 500)	> 1 µM	< 1 µM	> 1 µM	> 1 µM
C=C(F)C(=O)Nc1ccc2c(-c3ccccc3CNc3cc(C)nc4c(C(C)C)cnn34)nccc2c1 [Compound 156]	< 1 µM	0.1 to 1 µM	B (B indicates 50 < [fold] ≤ 500)	B (B indicates 50 < [fold] ≤ 500)	B (B indicates 50 < [fold] ≤ 500)	> 1 µM	1 to 10 µM	> 1 µM	> 1 µM
C=C(F)C(=O)Nc1ccc2c(-c3ccccc3CNc3nc(N[C@@H]4CC[C@@H](C)NC4)nc4c(C(C)C)cnn34)nccc2c1 [Compound 163]	< 1 µM	< 0.1 µM	A (A indicates [fold] > 500)	A (A indicates [fold] > 500)	A (A indicates [fold] > 500)	> 1 µM	< 1 µM	> 1 µM	> 1 µM
CC(C)c1cnn2c(NCc3ccccc3-c3nccc4cc(NC(=O)/C=C/CN(C)C)ccc34)nc(N[C@@H]3CC[C@@H](C)NC3)nc12 [Compound 154]	< 1 µM	< 0.1 µM	A (A indicates [fold] > 500)	A (A indicates [fold] > 500)	A (A indicates [fold] > 500)	> 1 µM	1 to 10 µM	> 1 µM	> 1 µM
C=C(F)C(=O)Nc1ccc2c(-c3ccccc3CNc3nc(NC4CCC(OC)C4)nc4c(C(C)C)cnn34)nccc2c1 (racemic) [Compound 98]	< 1 µM	0.1 to 1 µM	B (B indicates 50 < [fold] ≤ 500)	B (B indicates 50 < [fold] ≤ 500)	B (B indicates 50 < [fold] ≤ 500)	> 1 µM	< 1 µM	> 1 µM	> 1 µM
C=C(F)C(=O)Nc1ccc2c(-c3ccccc3CNc3nc(NC4CCCNC4)nc4c(C(C)C)cnn34)nccc2c1 (stereo not drawn) [Compound 172]	< 1 µM	< 0.1 µM	A (A indicates [fold] > 500)	A (A indicates [fold] > 500)	A (A indicates [fold] > 500)	> 1 µM	< 1 µM	> 1 µM	> 1 µM
C=C(F)C(=O)Nc1ccc2c(-c3ccccc3CNc3nc(NC[C@@H]4CCNC[C@@H]4O)nc4c(C(C)C)cnn34)nccc2c1 [Compound 162]	< 1 µM	< 0.1 µM	A (A indicates [fold] > 500)	A (A indicates [fold] > 500)	A (A indicates [fold] > 500)	> 1 µM	1 to 10 µM	> 1 µM	> 1 µM
Cc1nc(NCc2ccccc2-c2nccc3cc(NC(=O)/C=C/CN(C)C)ccc23)n2ncc(C(C)C)c2n1 [Compound 167]	< 1 µM	0.1 to 1 µM	B (B indicates 50 < [fold] ≤ 500)	B (B indicates 50 < [fold] ≤ 500)	B (B indicates 50 < [fold] ≤ 500)	> 1 µM	< 1 µM	> 1 µM	> 1 µM
C=C(F)C(=O)Nc1ccc2c(-c3ccccc3CNc3nc(NC4CCOC4)nc4c(C(C)C)cnn34)nccc2c1 (stereo not drawn) [Compound 92]	< 1 µM	0.1 to 1 µM	B (B indicates 50 < [fold] ≤ 500)	B (B indicates 50 < [fold] ≤ 500)	B (B indicates 50 < [fold] ≤ 500)	> 1 µM	< 1 µM	> 1 µM	> 1 µM
C=CC(=O)Nc1ccc2c(-c3ccccc3CNc3nc(Oc4cccnc4)nc4c(C(C)C)cnn34)nccc2c1 [Compound 182]	< 1 µM	0.1 to 1 µM	B (B indicates 50 < [fold] ≤ 500)	B (B indicates 50 < [fold] ≤ 500)	B (B indicates 50 < [fold] ≤ 500)	> 1 µM	1 to 10 µM	> 1 µM	> 1 µM
C=CC(=O)Nc1ccc2c(-c3cccc(C(F)(F)F)c3CNc3nc(Nc4cccnc4)nc4c(C(C)C)cnn34)nccc2c1 [Compound 213]	1 to 10 µM	> 1 µM	C (C indicates [fold] ≤ 50)	C (C indicates [fold] ≤ 50)	C (C indicates [fold] ≤ 50)	> 1 µM		> 1 µM	> 1 µM
CC(C)c1cnn2c(NCc3ccccc3-c3nccc4cc(NC(=O)/C=C/CN(C)C)ccc34)cc(NC3CCC(F)(F)CC3)nc12 [Compound 185]	< 1 µM	< 0.1 µM	A (A indicates [fold] > 500)	A (A indicates [fold] > 500)	A (A indicates [fold] > 500)	> 1 µM		> 1 µM	> 1 µM
C=C(Cl)C(=O)Nc1ccc2c(-c3ccccc3CNc3nc(NC[C@H]4CCNC[C@@H]4O)nc4c(C(C)C)cnn34)nccc2c1 [Compound 206]	< 1 µM	< 0.1 µM	A (A indicates [fold] > 500)	A (A indicates [fold] > 500)	A (A indicates [fold] > 500)	> 1 µM		> 1 µM	> 1 µM
C=CC(=O)Nc1ccc2c(-c3ccccc3CNc3nc(N4CCN(CC(F)(F)F)CC4)nc4c(C(C)C)cnn34)nccc2c1 [Compound 210]	< 1 µM	< 0.1 µM	B (B indicates 50 < [fold] ≤ 500)	B (B indicates 50 < [fold] ≤ 500)	B (B indicates 50 < [fold] ≤ 500)	> 1 µM		> 1 µM	> 1 µM
C=C(C)C(=O)Nc1ccc2c(-c3ccccc3CNc3nc(OC4CCC(C)(C)NC4)nc4c(C(C)C)cnn34)nccc2c1 (stereo not drawn) [Compound 190]	< 1 µM	< 0.1 µM	A (A indicates [fold] > 500)	A (A indicates [fold] > 500)	A (A indicates [fold] > 500)	> 1 µM		> 1 µM	> 1 µM
C=CC(=O)Nc1ccc2c(-c3ccccc3CNc3nc(Nc4cccc(OC5CCC(C)(C)NC5)c4)nc4c(C(C)C)cnn34)nccc2c1 (stereo not drawn) [Compound 194]	< 1 µM	< 0.1 µM	A (A indicates [fold] > 500)	A (A indicates [fold] > 500)	A (A indicates [fold] > 500)	> 1 µM		> 1 µM	> 1 µM
